Results as given in BindingDB's records for doi:10.1016/s0960-894x(02)00995-2 (The Oxford Centre For Molecular Sciences and The Dyson …, 2003).

Target: T1, Chymotrypsin-like elastase family member 2A (Sus scrofa, UniProt P08419)
T1 sequence (P08419 whole entry): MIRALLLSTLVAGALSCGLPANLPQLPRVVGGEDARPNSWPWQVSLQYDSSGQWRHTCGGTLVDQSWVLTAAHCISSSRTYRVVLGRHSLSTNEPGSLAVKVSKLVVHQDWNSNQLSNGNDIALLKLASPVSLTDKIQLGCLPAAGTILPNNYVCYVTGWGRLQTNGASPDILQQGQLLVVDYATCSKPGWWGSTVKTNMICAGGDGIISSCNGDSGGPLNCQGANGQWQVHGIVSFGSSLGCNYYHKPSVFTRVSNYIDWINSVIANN
Assay: ChEBML_152310
From the text: Inhibitory concentration against porcine pancreatic elastase (PPE)

Structure (SMILES) | IC50 [µM]
CC(C)C[C@H]1C(=O)N(S(C)(=O)=O)CCN1C(=O)OC(C)(C)C [(S)-2-Isobutyl-4-methanesulfonyl-3-oxo-piperazine-1-carboxylic acid tert-butyl ester] | 923
CCC(C)[C@H]1C(=O)N(S(=O)(=O)c2ccc(C)cc2)CCN1C(=O)OC(C)(C)C (stereo partly drawn) [(S)-2-sec-Butyl-3-oxo-4-(toluene-4-sulfonyl)-piperazine-1-carboxylic acid tert-butyl ester] | 293
CC(C)C[C@H]1C(=O)N(Cc2ccccc2)CCN1S(C)(=O)=O [(S)-1-Benzyl-3-isobutyl-4-methanesulfonyl-piperazin-2-one] | 2000
Cc1ccc(S(=O)(=O)N2CCN(Cc3ccccc3)C(=O)[C@@H]2CC(C)C)cc1 [(S)-1-Benzyl-3-isobutyl-4-(toluene-4-sulfonyl)-piperazin-2-one] | 62
